The results in this text go back to US20080255143A1, “Inhibitors of Akt Activity” (SMITHKLINE BEECHAM CORPORATION, priority 2003, published 2008).

As a reminder, the IC50 is the concentration that inhibits the measured activity by half. Higher therefore signals a need for much substance.

Format in all cases: biochemical
What all share (details): catalytic domain, 10 nM activated enzyme, 4 uM ATP, 8 uM peptide, 40 minutes at room temperature

One assay concerns the target T1, delta-PH AKT1 (Homo sapiens, UniProt P31749).
T1 construct: Insect cells expressing His-tagged AKT1 (aa 136-480) were lysed; His; made in house; host or cells: insect cells
Put plainly: AKT enzyme assay (substrate phosphorylation, SPA), AKT1. On the procedure:
Insect cells expressing His-tagged AKT1 (aa 136-480) were lysed in 25 mM HEPES, 100 mM NaCl, 20 mM imidazole; pH 7.5 using a polytron (5 mLs lysis buffer/g cells). Cell debris was removed by centrifuging at 28,000×g for 30 minutes. The supernatant was filtered through a […] filter then loaded onto a nickel-chelating column pre-equilibrated with lysis buffer. The column was washed with 5 column volumes (CV) of lysis buffer then with 5 CV of 20% buffer B, where buffer B is 25 mM HEPES, 100 mM NaCl, 300 mM imidazole; pH 7.5. His-tagged AKT1 (aa 136-480) was eluted with a 20-100% linear gradient of buffer B over 10 CV. His-tagged AKT1 (136-480) eluting fractions were pooled and diluted 3-fold with buffer C, where buffer C is 25 mM HEPES, pH 7.5. […]
Compounds of the present invention were tested for AKT 1, 2, and 3 protein serine kinase inhibitory activity in substrate phosphorylation assays. […] Substrate phosphorylation was detected by the following procedure:
Assays were performed in 384 well U-bottom white plates. […] The reaction was stopped by the addition of 50 ul SPA bead mix (Dulbecco's PBS without Mg^2+ and Ca^2+, 0.1% Triton X-100, 5 mM EDTA, 50 uM ATP, 2.5 mg/ml Streptavidin-coated SPA beads.) The plate was sealed, the beads were allowed to settle overnight, and then the plate was counted in a Packard Topcount Microplate Scintillation Counter (Packard Instrument Co., Meriden, Conn.). […]

The next assay concerns the target T2, delta-PH AKT2 (Homo sapiens, UniProt P31751).
T2 construct: His-tagged AKT2 (aa 138-481) and His-tagged AKT3 (aa 135-479) were isolated; His; made in house; host or cells: insect cells (only by 'in a similar fashion' to AKT1)
Kind of assay: AKT enzyme assay (substrate phosphorylation, SPA), AKT2. On the procedure:
(§1) His-tagged AKT2 (aa 138-481) and His-tagged AKT3 (aa 135-479) were isolated and purified in a similar fashion.
(§2) Compounds of the present invention were tested for AKT 1, 2, and 3 protein serine kinase inhibitory activity in substrate phosphorylation assays. This assay examines the ability of small molecule organic compounds to inhibit the serine phosphorylation of a peptide substrate. The substrate phosphorylation assays use the catalytic domains of AKT 1, 2, or 3. […] Substrate phosphorylation was detected by the following procedure:
(§3) Assays were performed in 384 well U-bottom white plates. […] The reaction was stopped by the addition of 50 ul SPA bead mix (Dulbecco's PBS without Mg^2+ and Ca^2+, 0.1% Triton X-100, 5 mM EDTA, 50 uM ATP, 2.5 mg/ml Streptavidin-coated SPA beads.) The plate was sealed, the beads were allowed to settle overnight, and then the plate was counted in a Packard Topcount Microplate Scintillation Counter (Packard Instrument Co., Meriden, Conn.).
(§4) The data for dose responses were plotted as % Control calculated with the data reduction formula 100*(U1-C2)/(C1-C2) versus concentration of compound where U is the unknown value, C1 is the average control value obtained for DMSO, and C2 is the average control value obtained for 0.1M EDTA. […]

The target of the next assay is T3, delta-PH AKT3 (Homo sapiens, UniProt Q9Y243).
T3 construct: His-tagged AKT2 (aa 138-481) and His-tagged AKT3 (aa 135-479) were isolated; His; made in house; host or cells: insect cells (only by 'in a similar fashion' to AKT1)
Kind of assay: AKT enzyme assay (substrate phosphorylation, SPA), AKT3. As to the method:
as §1, §2, §3, §4

Structures can show the parent of a compound that is named as a salt.

T1 sequence (P31749 136-480): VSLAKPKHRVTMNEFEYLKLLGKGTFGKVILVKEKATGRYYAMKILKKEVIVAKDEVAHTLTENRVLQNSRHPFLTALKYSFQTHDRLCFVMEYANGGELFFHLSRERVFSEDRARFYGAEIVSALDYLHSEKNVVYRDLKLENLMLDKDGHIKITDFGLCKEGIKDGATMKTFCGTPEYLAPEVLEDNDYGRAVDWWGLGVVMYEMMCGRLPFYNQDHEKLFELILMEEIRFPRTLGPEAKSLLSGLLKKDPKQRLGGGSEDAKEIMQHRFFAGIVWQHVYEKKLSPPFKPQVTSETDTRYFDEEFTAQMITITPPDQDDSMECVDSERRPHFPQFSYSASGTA
T3 sequence (Q9Y243 135-479): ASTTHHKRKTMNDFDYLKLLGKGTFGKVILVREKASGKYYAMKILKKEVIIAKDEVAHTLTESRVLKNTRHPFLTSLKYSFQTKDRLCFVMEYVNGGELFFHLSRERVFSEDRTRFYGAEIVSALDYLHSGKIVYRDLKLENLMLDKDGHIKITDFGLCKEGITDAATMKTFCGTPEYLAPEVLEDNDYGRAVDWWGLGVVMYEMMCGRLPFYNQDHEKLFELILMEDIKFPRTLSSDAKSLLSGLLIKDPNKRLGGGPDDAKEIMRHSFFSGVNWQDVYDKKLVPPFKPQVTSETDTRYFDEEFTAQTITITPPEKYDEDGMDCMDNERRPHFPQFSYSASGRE
T2 sequence (P31751 138-481): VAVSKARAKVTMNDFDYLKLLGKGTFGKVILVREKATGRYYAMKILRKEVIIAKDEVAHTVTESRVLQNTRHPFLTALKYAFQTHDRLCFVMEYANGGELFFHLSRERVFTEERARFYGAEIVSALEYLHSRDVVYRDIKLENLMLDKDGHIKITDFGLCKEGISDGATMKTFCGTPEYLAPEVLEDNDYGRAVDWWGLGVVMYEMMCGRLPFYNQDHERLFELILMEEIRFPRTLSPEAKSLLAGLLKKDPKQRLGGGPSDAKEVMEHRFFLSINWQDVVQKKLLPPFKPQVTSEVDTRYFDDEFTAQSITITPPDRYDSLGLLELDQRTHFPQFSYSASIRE

Turning to `CCn1c(-c2nonc2N)nc2c(-c3cccc(Cl)c3)ncc(NCCCNC[C@H](O)CO)c21` [Example 236, (S)-3-[3-[2-(4-amino-furazan-3-yl)-4-(3-chloro-phenyl)-1-ethyl-1H-imidazo[4,5-c]pyridin-7-ylamino]-propylamino]-propane-1,2-diol trifluoroacetate], the concentration for half-maximal inhibition (IC50) on delta-PH AKT1 amounted to 0.069 µM; on delta-PH AKT2, 0.038 µM; at delta-PH AKT3 it was 0.032 µM.
